How the values were obtained:
Assay type in all cases: in vivo
[1] = test system: Velvet Leaf; test: General post-emergent herbicidal activity at 10 lbs/acre, Velvet Leaf; conditions: post-emergence, 336 h
Description: (§1) Various species of plants, both broadleaf weeds and valuable crops, were planted in beds of good agricultural soil in a greenhouse. After the plants had emerged and grown to a height of about 2-6 inches, a portion of the plants were sprayed with an aqueous mixture, made by mixing a selected active ingredient and […], […] Other portions of the plants were left untreated to serve as controls. In each test the active ingredient was a 3-methylethyl-1H-2,1,3-benzothiadiazin-4(3H)-one-2,2-dioxide having a substituent in the one position according to the invention.
(§2) After a period of 2 weeks the selective effect of the test ingredient on the plants was evaluated by a comparison with the control group of plants.

[2] = test system: Annual Morning Glory; test: General post-emergent herbicidal activity at 10 lbs/acre, Annual Morning Glory; conditions: Ipomoea, post-emergence, 336 h
Description: as §1, §2

[3] = test system: Nutsedge; test: General post-emergent herbicidal activity at 10 lbs/acre, Nutsedge; conditions: Cyperus, post-emergence, 336 h
Description: as §1, §2

[4] = test system: Pig Weed; test: General post-emergent herbicidal activity at 10 lbs/acre, Pig Weed; conditions: post-emergence, 336 h
Description: as §1, §2

[5] = test system: Jimson Weed; test: Selective post-emergent greenhouse test, Jimson Weed; conditions: post-emergence, 336 h, 2 weeks; for pest or weed control at 358.672 g/ha: 0.32 lbs/acre; for pest or weed control at 706.135 g/ha: 0.63 lbs/acre
Description: (§3) So as to illustrate clearly the phytotoxic properties of the various active ingredients of the present invention, a group of controlled greenhouse experiments is described below.
(§4) Various species of plants, both broadleaf weeds and valuable crops, were planted in beds of good agricultural soil in a greenhouse. After the plants had emerged and grown to a height of about 2-6 inches, a portion of the plants were sprayed with an aqueous mixture, made by mixing a selected active ingredient and emulsifier or dispersant with water to provide solution containing 250 or 125 ppm active ingredient, employing sufficient amounts of the treating composition to provide low post emergent application rates of about 0.63 or 0.32 pounds per acre. Other portions of the plants were left untreated to serve as controls. In each test the active ingredient was a 3-methylethyl-1H-2,1,3-benzothiadiazin-4(3H)-one-2,2-dioxide having a substituent in the one position according to the invention.
as §2

[6] = test system: Velvet Leaf; test: Selective post-emergent greenhouse test, Velvet Leaf; conditions: post-emergence, 336 h, 2 weeks; for pest or weed control at 358.672 g/ha: 0.32 lbs/acre; for pest or weed control at 706.135 g/ha: 0.63 lbs/acre
Description: as §3, §4, §2

[7] = test system: Cotton; test: Selective post-emergent greenhouse test, Cotton (crop injury); conditions: Gossypium hirsutum, post-emergence, 336 h, post-emergent, 2 weeks, crop, read-out: % Control Cotton; for plant injury at 706.135 g/ha: 0.63 lbs/acre; for plant injury at 358.672 g/ha: 0.32 lbs/acre
Description: as §3, §4, §2

[8] = test system: Soybean; test: Selective post-emergent greenhouse test, Soybean (crop injury); conditions: Glycine max, post-emergence, 336 h, 2 weeks, read-out: % Control Soybean; for plant injury at 358.672 g/ha: 0.32 lbs/acre; for plant injury at 706.135 g/ha: 0.63 lbs/acre
Description: as §3, §4, §2

| SMILES | pest or weed control at 11208.5 g/ha [1] | pest or weed control at 11208.5 g/ha [2] | pest or weed control at 11208.5 g/ha [3] | pest or weed control at 11208.5 g/ha [4] | pest or weed control at 358.672 g/ha [5] | pest or weed control at 706.135 g/ha [5] | pest or weed control at 358.672 g/ha [6] | pest or weed control at 706.135 g/ha [6] | plant injury at 706.135 g/ha [7] | plant injury at 358.672 g/ha [8] | plant injury at 706.135 g/ha [8] | plant injury at 358.672 g/ha [7] |
| --- | --- | --- | --- | --- | --- | --- | --- | --- | --- | --- | --- | --- |
| CC(C)OC(=O)N1c2ccccc2C(=O)N(C(C)C)S1(=O)=O [CO2 CH(CH3)2] | 100% | 50% | 70% | 0% |  |  |  |  |  |  |  |  |
| CCN(CC)S(=O)(=O)N1c2ccccc2C(=O)N(C(C)C)S1(=O)=O [SO2 N(C2 H5)2] | 100% | 100% | 60% | 100% |  |  |  |  |  |  |  |  |
| CC(C)N1C(=O)c2ccccc2N(S(C)(=O)=O)S1(=O)=O [SO2 CH3, 1H-2,1,3-Benzothiadiazin-4(3H)-one: 3-(1-methylethyl)-1-methylsulfonyl-; 2,2-dioxide] | 100% | 100% | 20% | 100% |  |  |  |  |  |  |  |  |
| CC(C)C(=O)N1c2ccccc2C(=O)N(C(C)C)S1(=O)=O [COCH(CH3)2, 1H-2,1,3-Benzothiadiazin-4 (3H)-one:3-(1-methylethyl)-1-(2- -methyl-1-oxopropyl)-2,2-dioxide] | 100% | 100% | 95% |  |  |  |  |  |  |  |  |  |
| CCS(=O)(=O)N1c2ccccc2C(=O)N(C(C)C)S1(=O)=O [SO2 CH2 CH3, 1H-2,1,3-Benzothiadiazin-4(3H)-one; 1-Ethylsulfonyl-3-(1-methylethyl)-; 2,2-dioxide] | 100% | 100% | 85% | 100% |  |  |  |  |  |  |  |  |
| CCCC(C)C(=O)N1c2ccccc2C(=O)N(C(C)C)S1(=O)=O (stereo not shown) [COCH(CH3)CH2 CH2 CH3, 1H-2,1,3-Benzothiadiazin-4(3H)-one: 3-(1-methylethyl)-1-(2-methyl-1-oxopentyl)-; 2,2-dioxide] | 100% | 100% | 95% |  |  |  |  |  |  |  |  |  |
| CCCCOC(=O)N1c2ccccc2C(=O)N(C(C)C)S1(=O)=O [CO2 (CH2)3 CH3] | 100% | 100% | 95% | 100% |  |  |  |  |  |  |  |  |
| CCCCS(=O)(=O)N1c2ccccc2C(=O)N(C(C)C)S1(=O)=O [SO2 (CH2)3 CH3, 1H-2,1,3-Benzothiadiazin-4(3H)-one: 1-Butylsulfonyl-3-(1-methylethyl)-; 2,2-dioxide] | 100% | 100% | 85% | 100% |  |  |  |  |  |  |  |  |
| CCCOC(=O)N1c2ccccc2C(=O)N(C(C)C)S1(=O)=O [CO2 CH2 CH2 CH3] | 100% | 100% | 90% | 100% |  |  |  |  |  |  |  |  |
| CC(C)N1C(=O)c2ccccc2N(C(=O)N(C)C)S1(=O)=O [CON(CH3)2, 1H-2,1,3-Benzothiadiazine-1-carboxamide: N,N-Dimethyl-3,4-dihydro-3-(1-methylethyl)-4-oxo-, 2,2-dioxide] |  |  |  |  | 100% | 100% | 40% | 95% | 40% | 0% | 0% |  |
| CCCC(=O)N1c2ccccc2C(=O)N(C(C)C)S1(=O)=O [COCH2 CH2 CH3] | 100% | 100% | 90% | 100% |  |  |  |  |  |  |  |  |
| CCN(CC)C(=O)N1c2ccccc2C(=O)N(C(C)C)S1(=O)=O [CON(C2 H5)2] |  |  |  |  | 100% | 100% | 0% | 20% | 90% | 0% | 0% | 10% |
| CC(C)N1C(=O)c2ccccc2N(S(=O)(=O)C(C)C)S1(=O)=O [SO2 CH(CH3)2, 1H-2,1,3-Benzothiadiazin-4(3H)-one: 3-(1-methylethyl)-1-(1-methylethylsulfonyl)-; 2,2-dioxide] | 100% | 100% | 85% | 100% |  |  |  |  |  |  |  |  |
| CC(Br)C(=O)N1c2ccccc2C(=O)N(C(C)C)S1(=O)=O (stereo not shown) [COCHBrCH3, 1H-2,1,3-Benzothiadiazin-4(3H)-one: 1-(2-Bromo-1-oxopropyl)-3-(1-methylethyl)-; 2,2-dioxide] |  |  |  |  | 100% | 100% | 100% | 100% | 4% | 0% | 0% | 0% |
| CCCCCCCCCCCC(=O)N1c2ccccc2C(=O)N(C(C)C)S1(=O)=O [CO(CH2)10 CH3, 3-(1-Methylethyl)-1-(1-oxododecanyl)-1H-2,1,3-benzothiadiazin-4 (3H)-one-2,2-dioxide] |  |  |  |  | 100% | 100% | 60% | 70% | 20% | 0% | 0% | 0% |
| COC(=O)CCC(=O)N1c2ccccc2C(=O)N(C(C)C)S1(=O)=O [COCH2 CH2 CO2 CH3, 1H-2,1,3-Benzothiadiazin-1-butanoic acid; γ,4-Dioxo-3-(1-methylethyl)-3,4-dihydro-, methyl ester; 2,2-dioxide] | 100% | 100% | 95% |  |  |  |  |  |  |  |  |  |
| CC(C)N1C(=O)c2ccccc2N(S(=O)(=O)N(C)C)S1(=O)=O [SO2 N(CH3)2, 1H-2,1,3-Benzothiadiazin-4-(3H)-one; 1-Dimethylsulfamoyl-3-(1-methylethyl)-2,2-dioxide] |  |  |  |  |  | 100% | 70% | 50% | 70% | 0% | 0% | 5% |
| CC(C)N1C(=O)c2ccccc2N(C(=O)c2ccccc2)S1(=O)=O |  |  |  |  | 80% | 80% | 0% | 0% | 0% | 0% | 0% | 0% |
| CC(C)N1C(=O)c2ccccc2N(S(=O)(=O)CCl)S1(=O)=O [SO2 CHCl, 1H-2,1,3-Benzothiadiazin-4(3H)-one: 1-chloromethylsulfonyl-3-(1-methylethyl)-; 2,2-dioxide] | 100% | 80% | 90% | 100% |  |  |  |  |  |  |  |  |
| CCCS(=O)(=O)N1c2ccccc2C(=O)N(C(C)C)S1(=O)=O [SO2 CH2 CH 2 CH3, 1H-2,1,3-Benzothiadiazin-4(3H)-one: 3-(1-methylethyl)-1-propylsulfonyl-; 2,2-dioxide] | 100% | 100% | 90% | 100% |  |  |  |  |  |  |  |  |
| CC(C)N1C(=O)c2ccccc2N(S(=O)(=O)c2ccccc2)S1(=O)=O |  |  |  |  | 100% | 100% | 0% | 30% | 0% | 0% | 0% | 0% |
| CC(C)N1C(=O)c2ccccc2N(C(=O)C(C)(C)C)S1(=O)=O [COC(CH3)3, 3-(1-Methylethyl)-1-(2,2-dimethyl-1-oxopropyl)-1H-2,1,3- -benzothiadiazin-4(3H)-one-2,2-dioxide] |  |  |  |  | 70% | 100% | 80% | 100% | 40% | 0% | 0% | 0% |

Source: patent US4208514A, “4(3H)-Oxobenzo-2,1,3-thiadiazine-2,2-dioxides” (The Dow Chemical Company, priority 1976, dated 1980)
